Source: patent US9730940B2, “Purine inhibitors of human phosphatidylinositol 3-kinase delta” (priority 2012, dated 2017)

These compounds were tested against PI3K-alpha (Homo sapiens (Human), UniProt P42336) (assay: HTRF PI3K biochemical assay, alpha isoform). Details: ratio PI3K-alpha IC50 value/PI3K-delta IC50 value.
Chain of PI3K-alpha (P42336 whole entry, looked up, canonical isoform): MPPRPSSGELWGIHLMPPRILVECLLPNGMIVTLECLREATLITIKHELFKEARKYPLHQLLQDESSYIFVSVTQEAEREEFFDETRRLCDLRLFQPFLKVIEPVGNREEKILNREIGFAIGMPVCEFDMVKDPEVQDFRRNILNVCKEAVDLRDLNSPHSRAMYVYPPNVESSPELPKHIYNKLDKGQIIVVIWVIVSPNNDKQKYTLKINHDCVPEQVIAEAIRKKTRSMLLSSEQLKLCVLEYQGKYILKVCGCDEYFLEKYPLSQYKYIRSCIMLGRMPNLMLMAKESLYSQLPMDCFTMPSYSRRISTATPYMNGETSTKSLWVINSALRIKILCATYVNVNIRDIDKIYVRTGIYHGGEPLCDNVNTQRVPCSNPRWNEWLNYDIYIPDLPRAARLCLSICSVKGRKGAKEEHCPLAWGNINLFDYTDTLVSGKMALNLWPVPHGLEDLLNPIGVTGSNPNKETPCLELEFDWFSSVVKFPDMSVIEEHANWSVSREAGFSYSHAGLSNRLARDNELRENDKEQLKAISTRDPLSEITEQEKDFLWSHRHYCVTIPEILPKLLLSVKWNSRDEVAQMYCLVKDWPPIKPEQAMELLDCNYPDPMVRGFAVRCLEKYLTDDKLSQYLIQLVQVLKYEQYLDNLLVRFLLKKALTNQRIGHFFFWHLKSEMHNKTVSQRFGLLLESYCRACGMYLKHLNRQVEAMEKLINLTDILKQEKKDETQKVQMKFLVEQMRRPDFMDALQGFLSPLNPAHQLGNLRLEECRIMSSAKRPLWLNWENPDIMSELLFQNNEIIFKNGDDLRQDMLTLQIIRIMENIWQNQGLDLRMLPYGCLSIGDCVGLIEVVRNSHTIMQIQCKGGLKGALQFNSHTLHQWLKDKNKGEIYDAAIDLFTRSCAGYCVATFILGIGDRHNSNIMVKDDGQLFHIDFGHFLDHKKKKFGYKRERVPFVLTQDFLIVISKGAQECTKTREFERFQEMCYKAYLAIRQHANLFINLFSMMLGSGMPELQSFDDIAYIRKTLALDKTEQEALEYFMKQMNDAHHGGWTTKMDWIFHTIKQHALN
Chain of PI3K-alpha (P27986 whole entry partner, looked up, canonical isoform): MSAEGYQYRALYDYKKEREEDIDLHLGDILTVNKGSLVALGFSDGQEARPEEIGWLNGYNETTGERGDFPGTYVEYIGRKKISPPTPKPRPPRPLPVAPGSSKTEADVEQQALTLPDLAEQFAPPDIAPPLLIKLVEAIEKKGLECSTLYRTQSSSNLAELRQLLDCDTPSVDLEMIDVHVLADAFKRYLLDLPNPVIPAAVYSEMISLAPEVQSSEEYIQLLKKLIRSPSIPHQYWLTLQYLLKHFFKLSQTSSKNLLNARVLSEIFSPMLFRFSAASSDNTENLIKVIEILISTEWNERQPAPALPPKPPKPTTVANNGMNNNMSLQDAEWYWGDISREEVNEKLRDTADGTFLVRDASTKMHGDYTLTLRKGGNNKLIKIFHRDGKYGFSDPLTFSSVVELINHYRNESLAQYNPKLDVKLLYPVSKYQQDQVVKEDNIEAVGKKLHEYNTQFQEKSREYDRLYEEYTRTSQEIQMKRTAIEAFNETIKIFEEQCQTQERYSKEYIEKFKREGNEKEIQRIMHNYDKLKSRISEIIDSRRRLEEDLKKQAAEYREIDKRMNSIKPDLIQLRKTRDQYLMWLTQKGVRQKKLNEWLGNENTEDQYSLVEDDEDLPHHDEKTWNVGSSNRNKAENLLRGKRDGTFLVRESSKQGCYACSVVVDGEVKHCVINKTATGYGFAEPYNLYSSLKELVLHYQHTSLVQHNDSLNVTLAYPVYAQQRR

Compound	Relative Selectivity versus PI3Kalpha
CCC(=O)N1CC[C@H](Oc2ncnc3c2nc(-c2ccc(OC)c(C(F)(F)F)c2)n3C)C1 [Compound 3-35, 8-[4-methoxy-3-(trifluoromethyl)phenyl]-9-methyl-6-{[(3S)-1-propanoylpyrrolidin-3-yl]oxy}-9H-purine]	>10
CCC(=O)N1CC[C@H](Oc2ncnc3c2nc(-c2ccc(OC)c(C)c2)n3C)C1 [Compound 3-36, 8-(4-methoxy-3-methylphenyl)-9-methyl-6-{[(3S)-1-propanoylpyrrolidin-3-yl]oxy}-9H-purine]	>10
CCC(=O)N1CC[C@H](Oc2ncnc3c2nc(-c2cnc(OC)c(C#N)c2)n3C)C1 [Compound 3-37, 2-methoxy-5-(9-methyl-6-{[(3S)-1-propanoylpyrrolidin-3-yl]oxy}-9H-purin-8-yl)pyridine-3-carbonitrile]	>10
CCC(=O)N1CC[C@H](Oc2ncnc3c2nc(-c2cnc(OC)c(NS(C)(=O)=O)c2)n3C)C1 [Compound 3-38, N-[2-methoxy-5-(9-methyl-6-{[(3S)-1-propanoylpyrrolidin-3-yl]oxy}-9H-purin-8-yl)pyridin-3-yl]methanesulfonamide]	>10
CCC(=O)N1CC[C@H](Oc2ncnc3c2nc(-c2ccc(S(C)(=O)=O)cc2)n3C)C1 [Compound 3-39, 9-methyl-8-[4-(methyslulfonyl)phenyl]-6-{[(3S)-1-propanoylpyrrolidin-3-yl]oxy}-9H-purine]	>10
CCC(=O)N1CC[C@H](Oc2ncnc3c2nc(-c2cnn4c2CCCC4)n3C)C1 [Compound 3-40, 9-methyl-6-{[(3S)-1-propanoylpyrrolidin-3-yl]oxy}-8-(4,5,6,7-tetrahydropyrazolo[1,5-a]pyridin-3-yl)-9H-purine]	>10
CCn1c(-c2cnc(OC)c(NS(C)(=O)=O)c2)nc2c(O[C@H]3CCN(C(=O)C4CC4)C3)ncnc21 [Compound 3-41, N-[5-(6-{[(3S)-1-(cyclopropylcarbonyl)pyrrolidin-3-yl]oxy}-9-ethyl-9H-purin-8-yl)-2-methoxypyridin-3-yl]methanesulfonamide]	>10
CCn1c(-c2cnc(OC)c(C#N)c2)nc2c(O[C@H]3CCN(C(=O)C4CC4)C3)ncnc21 [Compound 3-42, 5-(6-{[(3S)-1-(cyclopropylcarbonyl)pyrrolidin-3-yl]oxy}-9-ethyl-9H-purin-8-yl)-2-methoxypyridine-3-carbonitrile]	>10
CCn1c(-c2cnc(C(F)(F)F)nc2)nc2c(O[C@H]3CCN(C(=O)C4CC4)C3)ncnc21 [Compound 3-43, 6-{[(3S)-1-(cyclopropylcarbonyl)pyrrolidin-3-yl]oxy}-9-ethyl-8-[2-(trifluoromethyl)pyrimidin-5-yl]-9H-purine]	>10
CCn1c(-c2cnc(N)c(C(F)(F)F)c2)nc2c(O[C@H]3CCN(C(=O)C4CC4)C3)ncnc21 [Compound 3-44, 5-(6-{[(3S)-1-(cyclopropylcarbonyl)pyrrolidin-3-yl]oxy}-9-ethyl-9H-purin-8-yl)-3-(trifluoromethyl)pyridin-2-amine]	>10
CCn1c(-c2cnc(N(C)C)nc2)nc2c(O[C@H]3CCN(C(=O)C4CC4)C3)ncnc21 [Compound 3-45, 5-(6-{[(3S)-1-(cyclopropylcarbonyl)pyrrolidin-3-yl]oxy}-9-ethyl-9H-purin-8-yl)-N,N-dimethylpyrimidin-2-amine]	>10
CCC1CN(C(=O)C2CC2)CC1Oc1ncnc2c1nc(-c1cnc(C)nc1)n2CC (stereo not shown) [Compound 3-46, [3R,4S and 3S,4R]-6-{[1-(cyclopropylcarbonyl)-4-ethylpyrrolidin-3-yl]oxy}-9-ethyl-8-(2-methylpyrimidin-5-yl)-9H-purine]	>10
CCn1c(-c2ccc(OC)cn2)nc2c(O[C@H]3CCN(C(=O)C4CC4)C3)ncnc21 [Compound 3-48, 6-{[(3S)-1-(cyclopropylcarbonyl)pyrrolidin-3-yl]oxy}-9-ethyl-8-(5-methoxypyridin-2-yl)-9H-purine]	>10
CCn1c(-c2cnc(OC)c(C)c2)nc2c(O[C@H]3CCN(C(=O)C4CC4)C3)ncnc21 [Compound 3-49, 6-{[(3S)-1-(cyclopropylcarbonyl)pyrrolidin-3-yl]oxy}-9-ethyl-8-(6-methoxy-5-methylpyridin-3-yl)-9H-purine]	>10
CCn1c(-c2ccc(OC)nc2)nc2c(O[C@H]3CCN(C(=O)C(C)C)C3)ncnc21 [Compound 3-50, 9-ethyl-8-(6-methoxypyridin-3-yl)-6-{[(3S)-1-(2-methylpropanoyl)pyrrolidin-3-yl]oxy}-9H-purine]	>10
CCn1c(-c2ccc(OC)nc2)nc2c(O[C@H]3CCN(C(=O)C4CC(F)(F)C4)C3)ncnc21 [Compound 3-51, 6-({(3S)-1-[(3,3-difluorocyclobutyl)carbonyl]pyr-rolidin-3-yl}oxy)-9-ethyl-8-(6-methoxypyridin-3-yl)-9H-purine]	>10

Compound	Relative Selectivity versus PI3Kalpha
CCn1c(-c2ccc(OC)nc2)nc2c(O[C@H]3CCN(C(=O)C4CCOCC4)C3)ncnc21 [Compound 3-52, 9-ethyl-8-(6-methoxypyridin-3-yl)-6-{[(3S)-1-(tetrahydro-2H-pyran-4-ylcarbonyl)pyrrolidin-3-yl]oxy}-9H-purine]	>10
CCn1c(-c2cnc(OC)c(F)c2)nc2c(O[C@H]3CCN(C(=O)C4CC4)C3)ncnc21 [Compound 3-53, 6-{[(3S)-1-(cyclopropylcarbonyl)pyrrolidin-3-yl]oxy}-9-ethyl-8-(5-fluoro-6-methoxypyridin-3-yl)-9H-purine]	>10
CCn1c(-c2cnc(OC)c(F)c2)nc2c(O[C@H]3CCN(C(=O)C(C)C)C3)ncnc21 [Compound 3-54, 9-ethyl-8-(5-fluoro-6-methoxypyridin-3-yl)-6-{[(3S)-1-(2-methylpropanoyl)pyrrolidin-3-yl]oxy}-9H-purine]	>10
CCn1c(-c2cnc(OC)c(F)c2)nc2c(O[C@H]3CCN(C(=O)C4CC(F)(F)C4)C3)ncnc21 [Compound 3-55, 6-({(3S)-1-[(3,3-difluorocyclobutyl)carbonyl]pyr-rolidin-3-yl}oxy)-9-ethyl-8-(5-fluoro-6-methoxypyridin-3-yl)-9H-purine]	>10
CCn1c(-c2cnc(OC)c(F)c2)nc2c(O[C@H]3CCN(C(=O)C4CCOCC4)C3)ncnc21 [Compound 3-56, 9-ethyl-8-(5-fluoro-6-methoxypyridin-3-yl)-6-{[(3S)-1-(tetrahydro-2H-pyran-4-ylcarbonyl)pyrrolidin-3-yl]oxy}-9H-purine]	>10
CCn1c(-c2cnc(OC)c(F)c2)nc2c(O[C@H]3CCN(C(=O)c4ccn(C)n4)C3)ncnc21 [Compound 3-57, 9-ethyl-8-(5-fluoro-6-methoxypyridin-3-yl)-6-({(3S)-1-[(1-methyl-1H-pyrazol-3-yl)carbonyl]pyrrolidin-3-yl}oxy)-9H-purine]	>10
CCn1c(-c2cnc(OC)c(F)c2)nc2c(O[C@H]3CCN(C(=O)c4cncn4C)C3)ncnc21 [Compound 3-58, 9-ethyl-8-(5-fluoro-6-methoxypyridin-3-yl)-6-({(3S)-1-[(1-methyl-1H-imidazol-5-yl)carbonyl]pyrrolidin-3-yl}oxy)-9H-purine]	>10
CCn1c(-c2cnn3c2CCCC3)nc2c(O[C@H]3CCN(C(=O)C4CC4)C3)ncnc21 [Compound 3-59, 6-{[(3S)-1-(cyclopropylcarbonyl)pyrrolidin-3-yl]oxy}-9-ethyl-8-(4,5,6,7-tetrahydropyrazolo[1,5-a]pyridin-3-yl)-9H-purine]	>10
CCn1c(-c2cnn3c2CCCC3)nc2c(O[C@H]3CCN(C(=O)C(C)C)C3)ncnc21 [Compound 3-60, 9-ethyl-6-{[(3S)-1-(2-methylpropanoyl)pyrrolidin-3-yl]oxy}-8-(4,5,6,7-tetrahydropyrazolo[1,5-a]pyridin-3-yl)-9H-purine]	>10
CCn1ncc(-c2nc3c(O[C@H]4CCN(C(=O)C5CCOCC5)C4)ncnc3n2CC)c1C [Compound 3-61, (S)-(3-((9-ethyl-8-(1-ethyl-5-methyl-1H-pyrazol-4-yl)-9H-purin-6-yl)oxy)pyrrolidin-1-yl)(tetrahydro-2H-pyran-4-yl)methanone]	>10
CCn1c(-c2cnc(C)nc2)nc2c(OC3CN(C(=O)C4CC4)CC34CC4)ncnc21 (stereo not shown) [Compound 3-63, (R— or S—)-6-{[5-(cyclopropylcarbonyl)-5-azaspiro[2.4]hept-7-yl]oxy}-9-ethyl-8-(2-methylpyrimidin-5-yl)-9H-purine]	>10
CCn1c(-c2cnc(C)nc2)nc2c(OC3CN(C(=O)C4CC4)CC34CC4)ncnc21 (stereo not shown) [Compound 3-64, (R— or S—)-6-{[5-(cyclopropylcarbonyl)-5-azaspiro[2.4]hept-7-yl]oxy}-9-ethyl-8-(2-methylpyrimidin-5-yl)-9H-purine]	>10
CCn1c(-c2cnc(C)nc2)nc2c(O[C@H]3CCN(S(=O)(=O)CC)C3)ncnc21 [Compound 4-8, (S)-9-ethyl-6-((1-(ethylsulfonyl)pyrrolidin-3-yl)oxy)-8-(2-methylpyrimidin-5-yl)-9H-purine]	>10
CCn1ncc(-c2nc3c(O[C@H]4CCN(C(=O)NC(C)C)C4)ncnc3n2C)c1C [Compound 5-3, (3S)-3-{[8-(1-ethyl-5-methyl-1H-pyrazol-4-yl)-9-methyl-9H-purin-6-yl]oxy}-N-(1-methylethyl)pyrrolidine-1-carboxamide]	>10
CCn1ncc(-c2nc3c(O[C@H]4CCN(C(=O)NC(C)(C)CC(C)(C)C)C4)ncnc3n2C)c1C [Compound 5-4, (3S)-3-{[8-(1-ethyl-5-methyl-1H-pyrazol-4-yl)-9-methyl-9H-purin-6-yl]oxy}-N-(1,1,3,3-tetramethylbutyl)pyrrolidine-1-carboxamide]	>10
